The text below walks through data of patent US6215002A, “Pyrrolopyrrolone derivatives as inhibitors of neutrophil elastase” (priority 1996, dated 2001).

pIC50: −log10 of the molar value. Structures can show the parent of a compound that is named as a salt.

The assay deals with T1, human neutrophil elastase (Homo sapiens, UniProt P08246).
T1 sequence (P08246 30-267): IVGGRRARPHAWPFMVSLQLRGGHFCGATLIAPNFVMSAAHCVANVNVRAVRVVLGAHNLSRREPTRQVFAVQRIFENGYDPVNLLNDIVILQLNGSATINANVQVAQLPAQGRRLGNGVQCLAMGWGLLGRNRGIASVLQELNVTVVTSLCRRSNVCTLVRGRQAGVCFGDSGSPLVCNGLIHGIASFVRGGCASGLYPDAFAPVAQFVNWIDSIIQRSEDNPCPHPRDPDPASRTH
The assay is described as follows: In vitro assay of human neutrophil elastase (HNE). It counts as biochemical. As to conditions: 118 nM purified human neutrophil elastase, pH 8.6, 15 min incubation at 30° C., MeO-succinyl-alanyl-alanyl-prolyl-valyl-p-nitroanilide substrate; read-out: HNE IC50. In outline:
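Residual activity was taken as the 10 min rate of absorbance rise at 405 nm after adding 0.6 mM MeO-succinyl-AAPV-p-nitroanilide. Curve fitting of activity against concentration gave IC50.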
What is called pIC50 is −log10 of the IC50, conventionally taken in molar units. In the case of `CCC[C@H]1C(=O)N(S(C)(=O)=O)[C@H]2CCN(S(=O)(=O)c3cccc(N)c3)[C@H]12` (relative stereo) [Example 235, rel-(3R,3aR,6aS)-4-(3-Amino-benzenesulfonyl)-1-methanesulfonyl-3-propyl-hexahydro-pyrrolo[3,2-b]pyrrol-2-one hydrochloride], the pIC50 is 8.05.

Consider `CCC[C@H]1C(=O)N(S(C)(=O)=O)[C@H]2CCN(S(=O)(=O)c3ccccc3N)[C@H]12` (relative stereo) [Example 236, rel-(3R,3aR,6aS)-4-(2-Amino-benzenesulfonyl)-1-methanesulfonyl-3-propyl-hexahydro-pyrrolo[3,2-b]pyrrol-2-one], for which the pIC50 is 7.74.

As to `CC(C)[C@H]1C(=O)N(S(C)(=O)=O)[C@H]2CCN(S(=O)(=O)c3ccc(N)cc3)[C@H]12` (relative stereo) [Example 237, rel-(3R,3aR,6aS)-4-(4-Amino-benzenesulfonyl)-3-isopropyl-1-methanesulfonyl-hexahydro-pyrrolo[3,2-b]pyrrol-2-one], the pIC50 was 7.54.

For `CCC[C@H]1C(=O)N(S(C)(=O)=O)[C@H]2CCN(C(=O)c3ccccn3)[C@H]12` (relative stereo) [Example 238, rel-(3R,3aR,6aS)-1-Methanesulfonyl-3-propyl-4-(pyridine-2-carbonyl)-hexahydro-pyrrolo[3,2-b]pyrrol-2-one], the pIC50 is 8.05.

For `CCCCOc1ccc(C(=O)N2CC[C@H]3[C@H]2[C@@H](CCC)C(=O)N3S(C)(=O)=O)cc1` (relative stereo) [Example 239, rel-(3R,3aR,6aS)-4-(4-Butoxy-benzoyl)-1-methanesulfonyl-3-propyl-hexahydro-pyrrolo[3,2-b]pyrrol-2-one], the negative logarithm of the IC50 (pIC50) is 7.74.

For `CCC[C@H]1C(=O)N(S(C)(=O)=O)[C@H]2CCN(C(=O)c3cccn3C)[C@H]12` (relative stereo) [Example 240, rel-(3R,3aR,6aS)-1-Methanesulfonyl-4-(1-methyl-1H-pyrrole-2-carbonyl)-3-propyl-hexahydro-pyrrolo[3,2-b]pyrrol-2-one], the pIC50 is 7.48.

Consider `CCC[C@H]1C(=O)N(S(C)(=O)=O)[C@H]2CCN(C(=O)c3ccc(NC(C)=O)nc3)[C@H]12` (relative stereo) [Example 241, rel-N-[5-(4-Methanesulfonyl-5-oxo-6R-propyl-hexahydro(3aS,6aR)-pyrrolo[3,2-b]pyrrole-1-carbonyl)-pyridin-2-yl]-acetamide], for which the pIC50 is 7.66.

As for `CCC[C@H]1C(=O)N(S(C)(=O)=O)[C@H]2CCN(C(=O)c3ccc[nH]3)[C@H]12` (relative stereo) [Example 242, rel-(3R,3aR,6aS)-1-Methanesulfonyl-3-propyl-4-(1H-pyrrole-2-carbonyl)-hexahydro-pyrrolo[3,2-b]pyrrol-2-one], the negative-log IC50 (pIC50) was 7.66.

As to `CCC[C@H]1C(=O)N(S(C)(=O)=O)[C@H]2CCN(C(=O)c3ccc(C(F)(F)F)cc3)[C@H]12` (relative stereo) [Example 244, rel-(3R,3aR,6aS)-1-Methanesulfonyl-3-propyl-(4-trifluoromethyl-benzoyl)-hexahydro-pyrrolo[3,2-b]pyrrol-2-one], the pIC50 was 7.96.

For the molecule `CCC[C@H]1C(=O)N(S(C)(=O)=O)[C@H]2CCN(C(=O)c3ccc(S(C)(=O)=O)cc3)[C@H]12` (relative stereo) [Example 245, rel-(3R,3aR,6aS)-1-Methanesulfonyl-4-(4-methanesulfonyl-benzoyl)-3-propyl-hexahydro-pyrrolo[3,2-b]pyrrol-2-one], the pIC50 is 8.05.

In the case of `CCC[C@H]1C(=O)N(S(C)(=O)=O)[C@H]2CCN(C(=O)c3ccncc3)[C@H]12` (relative stereo) [Example 246, rel-(3R,3aR,6aS)-1-Methanesulfonyl-3-propyl-4-(pyridine-4-carbonyl)-hexahydro-pyrrolo[3,2-b]pyrrol-2-one], the pIC50 was 7.68.

Consider `CCC[C@H]1C(=O)N(S(C)(=O)=O)[C@H]2CCN(C(=O)c3cccnc3)[C@H]12` (relative stereo) [Example 247, rel-(3R,3aR,6aS)-1-Methanesulfonyl-3-propyl-4-(pyridine-3-carbonyl)-hexahydro-pyrrolo[3,2-b]pyrrol-2-one], for which the pIC50 was 7.55.

With `CC(C)[C@H]1C(=O)N(S(C)(=O)=O)[C@H]2CCN(C(=O)CCCC3CCNCC3)[C@H]12` (relative stereo) [Example 255, rel-(3R,3aR,6aS)-3-Isopropyl-1-methanesulfonyl-4-(4-piperidin-4-yl-butyryl)-hexahydro-pyrrolo[3,2-b]pyrrol-2-one hydrochloride], the negative logarithm of the IC50 (pIC50) is 6.84.

For `CC(C)[C@H]1C(=O)N(S(C)(=O)=O)[C@H]2CCN(C(=O)CCCC3CCN(C)CC3)[C@H]12` (relative stereo) [Example 256, rel-(3R,3aR,6aS)-3-Isopropyl-1-methanesulfonyl-4-[4-(1-methyl-piperidin-4-yl)-butyryl]-hexahydro-pyrrolo[3,2-b]pyrrol-2-one hydrochloride], the pIC50 is 7.11.

On to `CS(=O)(=O)N1C(=O)[C@H](C2CC2)[C@@H]2[C@@H]1CCN2C(=O)/C=C/CN1CCCCC1` (relative stereo) [Example 257, rel-(3R,3aR,6aS)-3-Cyclopropyl-1-methanesulfonyl-4-(4-piperidin-1-yl-but-2E-enoyl)-hexahydro-pyrrolo[3,2-b]pyrrol-2-one hydrochloride], for which the pIC50 was 7.21.

For the molecule `C=CC[C@@H]1C(=O)N(S(=O)(=O)c2ccc3ccccc3c2)[C@@H]2CCN(C(=O)OCc3ccccc3)[C@@H]12` [Example 53, (3aR,6S,6aS)-6-Allyl-4-(naphthalene-2-sulfonyl)-5-oxo-hexahydro-pyrrolo[3,2-n]pyrrole-1-carboxylic acid benzyl ester], the pIC50 was 6.84.

Regarding `CCC[C@@H]1C(=O)N(S(=O)(=O)c2ccc3ccccc3c2)[C@@H]2CCN(C(=O)CCN3CCCCC3)[C@@H]12` [Example 54, (3S,3aS,6aR)-1-(Naphthalene-2-sulfonyl)-4-(3-piperidin-1-yl-propionyl)-3-propyl-hexahydro-pyrrolo[3,2-b]pyrrol-2-one hydrochloride], the pIC50 is 6.92.

With `C=CC[C@H]1C(=O)N(S(=O)(=O)c2ccc3ccccc3c2)[C@H]2CCN(C(=O)OCc3ccccc3)[C@H]12` [Example 55, (3aS,6R,6aR)-6-Allyl-4-(naphthalene-2-sulfonyl)-5-oxo-hexahydro-pyrrolo[3,2-b]pyrrole-1-carboxylic acid benzyl ester], the pIC50 is 7.42.

Regarding `CCC[C@H]1C(=O)N(S(=O)(=O)c2ccc3ccccc3c2)[C@H]2CCN(C(=O)CCN3CCCCC3)[C@H]12` [Example 56, (3R,3aR,6aS)-1-(Naphthalene-2-sulfonyl)-4-(3-piperidin-1-yl-propionyl)-3-propyl-hexahydro-pyrrolo[3,2-b]pyrrol-2-one hydrochloride], the pIC50 was 7.09.

Take `CCC[C@H]1C(=O)N(S(C)(=O)=O)[C@H]2CCN(C(=O)CCCCCN3CCCCCC3)[C@H]12` [Example 115, (3R,3aR,6aS)-4-(6-Azepin-1-yl-hexanoyl)-1-methanesulfonyl-3-propyl-hexahydro-pyrrolo[3,2-b]pyrrol-2-one hydrochloride]: the pIC50 was 6.50.
